Measured values reported in patent US20050192340A1, “Simvastatin formulations and methods of making same” (priority 2003, published 2005).

Experiment: In vitro hydrolysis of simvastatin formulations under simulated gastric conditions (dissolution in 0.1N HCl, HPLC)
Format: physicochemical
Conditions: 37° C.
Protocol: Generally, the simvastatin formulations were prepared by heating menthol to about 60° C. while stirring and adding a surface active agent (either TWEEN® or Poloxamer) and sodium ducosate or sodium lauryl sulfate. The mixture was stirred until all the components dissolved to form a melt. Thereafter, the melt was cooled to about 50° C., simvastatin was added during stirring until dissolved, the mixture was cooled to room temperature, and dispensed into capsules. After about an hour the liquid in the capsule had gelled. Each capsule was filled with enough formulation to have a dose of 20 mg of simvastatin.
Each formulation was tested by dissolution in 50 ml of 0.1N HCl at 37° C. with stirring. […] It was determined that the retention times for the simvastatin hydroxyl acid was 3.6 minutes and simvastatin lactone was 5.7 minutes.

CCC(C)(C)C(=O)O[C@H]1C[C@@H](C)C=C2C=C[C@H](C)[C@H](CCC3C[C@@H](O)CC(=O)O3)[C@H]21 (stereo partly drawn) [Simvastatin 100%]
0%: % hydrolyzed Simvastatin (0.1N HCl, 60 min, weight % hydrolyzed simvastatin from the initial simvastatin amount) | % converted to hydroxyl acid (0.1N HCl, 60 min, weight % of the total dissolved simvastatin in the open hydroxy acid form) | % Dissolved 60 min 0.1 N HCl (50 ml 0.1N HCl, stirring, total dissolved simvastatin (closed lactone + open hydroxy acid form), 20 mg capsule)
